Source: patent US11104690B2, “Indazole derivatives useful as inhibitors of diacylglyceride O-acyltransferase 2” (Merck Sharp & Dohme Corp., priority 2016, dated 2021)
Several values for one entry are separate records, joined by “and”; a condition that tells them apart may be missing. Identical values can stand only once.

Target: Human DGAT2 (Homo sapiens (Human), UniProt Q96PD7)
Assay: DGAT2 Enzymatic Activity Assay (triolein formation, LC/MS/MS)
Assay type: biochemical
Conditions: hDGAT2 Sf-9 membrane prep; 25 μM diolein, 10 μM oleoyl-CoA; room temperature
Outline: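 Triolein product, measured by LC/MS/MS as a ratio to internal standard, gave % inhibition and 4-parameter IC50. Reaction: 25 μM diolein, 10 μM oleoyl-CoA, 10 ng/μL hDGAT2 Sf-9 membrane, 100 mM Tris.Cl pH 7.0, 20 mM MgCl2, 5% ethanol, room temperature.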

Human DGAT2, sequence (Q96PD7 whole entry): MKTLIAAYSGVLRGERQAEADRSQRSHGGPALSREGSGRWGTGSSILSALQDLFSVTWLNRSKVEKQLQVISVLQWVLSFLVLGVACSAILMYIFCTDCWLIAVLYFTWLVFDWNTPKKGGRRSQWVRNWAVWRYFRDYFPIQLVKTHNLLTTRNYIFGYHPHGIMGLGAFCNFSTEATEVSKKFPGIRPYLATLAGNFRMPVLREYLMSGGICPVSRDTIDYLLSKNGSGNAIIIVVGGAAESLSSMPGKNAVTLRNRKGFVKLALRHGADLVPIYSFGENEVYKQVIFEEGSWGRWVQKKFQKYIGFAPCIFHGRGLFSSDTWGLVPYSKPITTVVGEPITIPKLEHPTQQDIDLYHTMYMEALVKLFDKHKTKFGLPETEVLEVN

IC50	Structure (SMILES)
846 nM	O=C(NC1CCS(=O)(=O)C1)c1ccc2c(-c3cncnc3)nn(-c3ccc(F)cc3)c2c1 (single isomer, unassigned) [Example 133-A, N-(1,1-dioxidotetrahydrothiophen-3-yl)-1-(4-fluorophenyl)-3-pyrimidin-5-yl-1H-indazole-6-carboxamide]
212 nM	O=C(NC1CCS(=O)(=O)C1)c1ccc2c(-c3cccnc3)nn(-c3ccc(F)cc3)c2c1 (single isomer, unassigned) [Example 134-A, N-(1,1-dioxidotetrahydrothiophen-3-yl)-1-(4-fluorophenyl)-3-pyridin-3-yl-1H-indazole-6-carboxamide]
65 nM	O=C(NC1CCS(=O)(=O)C1)c1ccc2c(-c3cccnc3Cl)nn(-c3ccc(F)cc3)c2c1 (single isomer, unassigned) [Example 135-A, 3-(2-chloropyridin-3-yl)-N-(1,1-dioxidotetrahydrothiophen-3-yl)-1-(4-fluorophenyl)-1H-indazole-6-carboxamide]
1.4 nM	O=C(NC1CCS(=O)(=O)C1)c1ccc2c(-c3cccc(OC(F)F)c3)nn(-c3ccc(F)cc3)c2c1 (single isomer, unassigned) [Example 136-A, 3-[3-(difluoromethoxy)phenyl]-N-(1,1-dioxidotetrahydrothiophen-3-yl)-1-(4-fluorophenyl)-1H-indazole-6-carboxamide]
5.4 nM	COc1cc(-c2nn(-c3ccc(F)cc3)c3cc(C(=O)NC4CCS(=O)(=O)C4)ccc23)c(Cl)cn1 (single isomer, unassigned) [Example 137-A, 3-(5-chloro-2-methoxypyridin-4-yl)-N-(1,1-dioxidotetrahydrothiophen-3-yl)-1-(4-fluorophenyl)-1H-indazole-6-carboxamide]
229 nM and 158 nM	CC1(NC(=O)c2ccc3c(-c4ccc5c(c4)OCO5)nn(-c4ccc(F)cc4)c3c2)CCS(=O)(=O)C1 (single isomer, unassigned) [Example 139-A, 3-(1,3-benzodioxol-5-yl)-1-(4-fluorophenyl)-N-(3-methyl-1,1-dioxidotetrahydrothiophen-3-yl)-1H-indazole-6-carboxamide]
455 nM	COc1cc(-c2nn(-c3ccc(F)cc3)c3cc(C(=O)NC4(C)CCS(=O)(=O)C4)ccc23)ccn1 (single isomer, unassigned) [Example 140-A, 1-(4-fluorophenyl)-3-(2-methoxypyridin-4-yl)-N-(3-methyl-1,1-dioxidotetrahydrothiophen-3-yl)-1H-indazole-6-carboxamide]
4.8 nM	COc1cc(-c2nn(-c3ccc(F)cc3)c3cc(C(=O)NC4(C)CCS(=O)(=O)C4)ccc23)c(Cl)cn1 (single isomer, unassigned) [Example 141-A, 3-(5-chloro-2-methoxypyridin-4-yl)-1-(4-fluorophenyl)-N-(3-methyl-1,1-dioxidotetrahydrothiophen-3-yl)-1H-indazole-6-carboxamide]
430 nM	COc1ncc(Cl)cc1-c1nn(-c2ccc(F)cc2)c2cc(C(=O)NC3(C)CCS(=O)(=O)C3)ccc12 (single isomer, unassigned) [Example 142-A, 3-(5-chloro-2-methoxypyridin-3-yl)-1-(4-fluorophenyl)-N-(3-methyl-1,1-dioxidotetrahydrothiophen-3-yl)-1H-indazole-6-carboxamide]
1.6 nM	CC1(NC(=O)c2ccc3c(-c4cccc(OC(F)F)c4)nn(-c4ccc(F)cc4)c3c2)CCS(=O)(=O)C1 (single isomer, unassigned) [Example 143-A, 3-[3-(difluoromethoxy)phenyl]-1-(4-fluorophenyl)-N-(3-methyl-1,1-dioxidotetrahydrothiophen-3-yl)-1H-indazole-6-carboxamide]
5.8 nM	COc1cccc(-c2nn(-c3ccc(F)cc3)c3cc(C(=O)NC4(C)CCS(=O)(=O)C4)ccc23)c1 (single isomer, unassigned) [Example 144-A, 1-(4-fluorophenyl)-3-(3-methoxyphenyl)-N-(3-methyl-1,1-dioxidotetrahydrothiophen-3-yl)-1H-indazole-6-carboxamide]
2.1 nM	CC1(NC(=O)c2ccc3c(-c4cccc(C5CC5)c4)nn(-c4ccc(F)cc4)c3c2)CCS(=O)(=O)C1 (single isomer, unassigned) [Example 145-A, 3-(3-cyclopropylphenyl)-1-(4-fluorophenyl)-N-(3-methyl-1,1-dioxidotetrahydrothiophen-3-yl)-1H-indazole-6-carboxamide]
63 nM	CC1(NC(=O)c2ccc3c(-c4cncc(C#N)c4)nn(-c4ccc(F)cc4)c3c2)CCS(=O)(=O)C1 (single isomer, unassigned) [Example 146-A, 3-(5-cyanopyridin-3-yl)-1-(4-fluorophenyl)-N-(3-methyl-1,1-dioxidotetrahydrothiophen-3-yl)-1H-indazole-6-carboxamide]
5.7 nM	CC1(NC(=O)c2ccc3c(-c4cccc(OCC(F)(F)F)c4)nn(-c4ccc(F)cc4)c3c2)CCS(=O)(=O)C1 (single isomer, unassigned) [Example 147-A, 1-(4-fluorophenyl)-N-(3-methyl-1,1-dioxidotetrahydrothiophen-3-yl)-3-[3-(2,2,2-trifluoroethoxy)phenyl]-1H-indazole-6-carboxamide]
4.5 nM	CC1(NC(=O)c2ccc3c(-c4cc(C#N)ccc4F)nn(-c4ccc(F)cc4)c3c2)CCS(=O)(=O)C1 (single isomer, unassigned) [Example 151-A, 3-(5-cyano-2-fluorophenyl)-1-(4-fluorophenyl)-N-(3-methyl-1,1-dioxidotetrahydrothiophen-3-yl)-1H-indazole-6-carboxamide]
4.5 nM	CC1(NC(=O)c2ccc3c(-c4ccc(Cl)nc4F)nn(-c4ccc(F)cc4)c3c2)CCS(=O)(=O)C1 (single isomer, unassigned) [Example 152-A, 3-(6-chloro-2-fluoropyridin-3-yl)-1-(4-fluorophenyl)-N-(3-methyl-1,1-dioxidotetrahydrothiophen-3-yl)-1H-indazole-6-carboxamide]
90 nM	CC1(NC(=O)c2ccc3c(-c4cncc(F)c4)nn(-c4ccc(F)cc4)c3c2)CCS(=O)(=O)C1 (single isomer, unassigned) [Example 153-A, 1-(4-fluorophenyl)-3-(5-fluoropyridin-3-yl)-N-(3-methyl-1,1-dioxidotetrahydrothiophen-3-yl)-1H-indazole-6-carboxamide]
17 nM	CC1(NC(=O)c2ccc3c(-c4cccnc4F)nn(-c4ccc(F)cc4)c3c2)CCS(=O)(=O)C1 (single isomer, unassigned) [Example 154-A, 1-(4-fluorophenyl)-3-(2-fluoropyridin-3-yl)-N-(3-methyl-1,1-dioxidotetrahydrothiophen-3-yl)-1H-indazole-6-carboxamide]
353 nM	COc1ccc(-c2nn(-c3ccc(F)cc3)c3cc(C(=O)NC4(C)CCS(=O)(=O)C4)ccc23)cn1 (single isomer, unassigned) [Example 155-A, 1-(4-fluorophenyl)-3-(6-methoxypyridin-3-yl)-N-(3-methyl-1,1-dioxidotetrahydrothiophen-3-yl)-1H-indazole-6-carboxamide]
11 nM	Cc1cccc(-c2nn(-c3ccc(F)cc3)c3cc(C(=O)NC4(C)CCS(=O)(=O)C4)ccc23)c1 (single isomer, unassigned) [Example 156-A, 1-(4-fluorophenyl)-N-(3-methyl-1,1-dioxidotetrahydrothiophen-3-yl)-3-(3-methylphenyl)-1H-indazole-6-carboxamide]
